Measured values reported in US9050278B2, “Scavenger of in vivo harmful reactive oxygen species and/or free radicals” (priority 2005, dated 2015).
Like-named read-outs stand apart in the source and are kept apart here.

Experiments:
[1] = tested on: PC12 cells; test: Cell death induced by antimycin A, viable cell count; assay type: cell-based, Rat
Experimental: (§1) The cells were cultured with an incubator at 37° C. under 5% CO2.
(§2) The cells were cultured at 37° C. in a sealed state. […] The cells were cultured at 37° C.
(§3) After 24 hours, the number of viable cells having a pyramid-shaped cell form was counted under a phase contrast microscope.
(§4) PC12 cells were cultured in a collagen-coated 24-well cell culture dish (manufactured by IWAKI&Co. Ltd.). […] After 0, 1, 2, and 3 days, the number of viable cells having a pyramid-shaped cell form was counted under a phase contrast microscope.
(§5) Cell death was induced by antimycin A or menadione in the same way as in Examples 2 and 3. […] First, PC12 cells were cultured in a collagen-coated 24-well cell culture dish (manufactured by IWAKI&Co. Ltd.). […] After 24 hours, the number of viable cells having a pyramid-shaped cell form was counted under a phase contrast microscope.
as §3

[2] = tested on: PC12 cells; test: Cell death induced by menadione, viable cell count; assay type: cell-based, Rat
Experimental: as §1, §2, §3, §4, §5

[3] = tested on: PC12 cells; settings: antimycin A 10 μg/ml, 0.6 mM hydrogen, 24 hours
Experimental: (§6) To generate .OH via O2^−., antimycin A was added to cells. […] The cells were cultured at 37° C.
(§7) In .OH detection, HPF (0.4 μM) was added to a cell medium, and the fluorescence image thereof was observed using a confocal laser scanning microscope (FV300 manufactured by Olympus Corp.) at an excitation wavelength of 488 nm and an […] wavelength of 510 nm. MitoTracker Green (1 μM; Molecular Probes) and MitoTracker Red (100 nM; Molecular Probes) were used in the staining of mitochondria. Anti-HNE and anti-8-OH-G antibodies were purchased from Nikken Seil Co., Ltd. Moreover, anti-TUJ-1 and anti-GFAP antibodies were purchased from Babco and Immunon, respectively.
The scale bars in FIGS. 16 and 18 denote 100 μm. Immunostaining intensities with anti-8-OH-G (FIG. 17) and anti-HNE (FIG. 19) antibodies were quantified using NIH Image software. […] Average values and standard deviations were determined from 4 independent experiments. *P<0.05, **P<0.01, ***P<0.001.

[4] = tested on: cerebral ischemia-reperfusion injury
Experimental: In cerebral ischemia, diverse mechanisms generate reactive oxygen species, and .OH is detected after ischemia-reperfusion. Rats were rendered locally ischemic for 90 minutes by mild cerebral artery occlusion and subsequently reperfused for 30 minutes. […] FK506 (1 mg/kg of body weight) was administered into the blood once immediately before reperfusion. Edaravone (3 mg/kg of body weight) was administered into the blood twice immediately before reperfusion and immediately after reperfusion. After anesthesia, the rats were maintained at 20° C. under usual air. […] After 1 day of mild cerebral artery occlusion, the brain was sliced, and the slices were stained with 2,3,5-triphenyltetrazolium salt (TTC) capable of serving as a substrate in mitochondrial respiration process. After 1 week, the animals were put under anesthesia. Then, the brain was rapidly excised and fixed with 10% formalin. The paraffin-embedded brain was sliced into a thickness of 6 μm, and the slices were stained with hematoxylin-eosin. Moreover, VECSTAIN ABC Kit was used in staining with antibodies. Anti-Iba-I antibodies were purchased from Wako Pure Chemical Industries, Ltd. Image analysis software (Mac Scope ver. 2.55; Mitsuya Shoji) was used in slide analysis. All the animal experiments were conducted according to the guideline of the animal commission of Nippon Medical School.
An infarct volume was estimated by measuring visually white regions in the brain. […] For comparison, two compounds were further tested. […] The other compound was FK506, which is under clinical trial for cerebral infarction in USA. […] The brain infarct volume was calculated as a total sum of all the slices according to the equation: infarct area×thickness.
Rats were rendered locally ischemic for 90 minutes by mild cerebral artery occlusion and subsequently reperfused for 30 minutes. […] The brain was cut by coronal section into 6 slices after 1 day of mild cerebral artery occlusion, and the slices were stained with TTC.
The photographs of FIG. 28 are the staining images of 3 different slices obtained by this method. […] An average value of infarct volumes and standard deviation were determined from the values of 6 animals in each group. *P<0.05, **P<0.01, ***P<0.001.
The brain was fixed after 3 days or 7 days of mild cerebral artery occlusion and embedded in paraffin. The coronal sections of 6 μm in thickness were stained with anti-8-OH-G, anti-HNE, or anti-GFAP antibodies. The left photographs of FIGS. 31 to 33 show the same regions adjacent to occlusion in the temporal cortical regions. The scale bar denotes 100 μm.
In the staining experiment, the brain was fixed after 3 days or 7 days of mild cerebral artery occlusion and embedded in paraffin. The coronal sections were stained with each antibody. The photographs of FIG. 34 show the central regions of occlusion in the temporal cortical regions. The scale bar of FIG. 34 denotes 200 μm. The scale bar in the inserted photographs of FIG. 34 denotes 100 μm. In FIG. 35, an average value of the number of Iba-1-positive cells in a certain field and standard deviation were determined from 6 animals in each group. *P<0.05. […] Microglia accumulation serves as an indicator for a brain disorder.

[5] = hydrogen pressure of 1 atm and room temperature; cited from earlier work
[6] = neutral solution saturated with hydrogen molecules, room temperature
[7] = Elimination of superoxide by hydrogen water; assay type: biochemical; settings: neutral solution saturated with hydrogen molecules, room temperature
Experimental: (§8) First, 1 l of water was injected into a 5-l pressure-resistant bottle (manufactured by UNICONTROLS. CO., LTD.).
For superoxide (O2^−.), 25× Reaction Buffer, Xanthine Solution, and NBT Solution contained in […] […] Then, a Xanthine oxidase solution was added thereto to thereby generate O2^−.. NBT-diformazan accumulation was measured over time with a spectrophotometer at 550 nm.
(§9) After reaction at room temperature for 30 minutes, absorbance at 415, 400, and 340 nm, respectively, were measured with a spectrophotometer.

[8] = tested on: cerebral cortex-derived primary cultured neuronal cells
Experimental: Rat cerebral cortex-derived primary cultured cells were used to induce oxidative stress under more physiological conditions.
Rat cerebral cortex-derived primary cultured neuronal cells were prepared from a 16-day-old fetus. The cerebral cortex was cut after meninges removal and digested with a protease mixed solution (SUMILON). The slices were mechanically dissociated with a pipette. Then, the cells were dispersed in a nerve cell culture medium (SUMILON) and seeded at a cell density of 5×10^4 cells/cm^2 in a plate coated with poly-L-lysine. The medium was replaced every three days by Neurobasal Medium (Gibco) containing B-27 (Gibco). The cells cultured for 11 days were used in the experiment. One day before the creation of an oxygen-glucose-deficient state, the medium was replaced by Neurobasal Medium (Gibco) containing B-27 minus AO (Gibco). […] 90% or more of the cells were neuronal cells.
To terminate the oxygen-glucose-deficient state, the medium was replaced again by the medium used before replacement. Culture was further continued at 37° C. in 95% air/5% carbon dioxide atmosphere.
After 10 minutes of the termination of the oxygen-glucose-deficient state, the amount of .OH was measured based on HPF fluorescence. […] To prepare a control, cells were treated with a DMEM medium containing glucose and oxygen, instead of being exposed to an oxygen-glucose-deficient state. […] An average value and standard deviation was determined from 4 independent experiments. **P<0.01.
After 1 day of oxygen-glucose deficiency, the viable neuronal cells were further detected by staining neuron-specific anti-TUJ-1 antibody. […] Average values and standard deviations shown in FIGS. 23 and 24 were determined from 4 independent experiments. ^#<0.0001 in FIG. 23, *P<0.05 in FIG. 24.

[9] = neutral solution saturated with hydrogen molecules, room temperature; remark: listed apart in the source
[10] = Reduction of NAD+ in hydrogen water; assay type: biochemical; settings: neutral solution saturated with hydrogen molecules, room temperature
Experimental: as §8, §9

[11] = room temperature, neutral conditions, without catalysts, HPF fluorescence
From the text: RF-5300PC (manufactured by Shimadzu Corp.) was used in fluorescence intensity measurement.
The .OH was monitored with a spectrofluorometer.

[12] = Reduction of FAD in hydrogen water; assay type: biochemical; settings: neutral solution saturated with hydrogen molecules, room temperature
Experimental: as §8, §9

[13] = tested on: cytochrome c; test: Reduction of cytochrome c in hydrogen water; assay type: biochemical; settings: neutral solution saturated with hydrogen molecules, room temperature
Experimental: as §8, §9

[14] = Elimination of hydrogen peroxide by hydrogen water; assay type: biochemical; settings: neutral solution saturated with hydrogen molecules, room temperature
Experimental: as §8
After reaction at room temperature for 30 minutes, 0.2 M phosphate buffer (pH 7.2) containing an equal amount of 20 μM DCFDA was subsequently added thereto. After reaction for 10 minutes, the amount of H2O2 remaining was measured with a fluorescence analyzer at an excitation wavelength of 485 nm.
as §9

[15] = tested on: skeletal muscle
Experimental: It has been known that strenuous exercise and the sudden stop of exercise generate free radicals and damage various tissues including muscles. […] Rats (Wister Rats, 8 week old, male) were run at a speed of 40 m/min. for 20 minutes. […] After 30 minutes, the rats were slaughtered. The skeletal muscle was excised. […] The method was conducted according to Sakai, Y., Iwamura, Y., Hayashi, J., Yamamoto, N., Ohkoshi, N., Nagata, H., Acute exercise causes mitochondrial DNA deletion in rat skeletal muscle., Muscle and Nerve 22: 256-261, 1999.

[16] = tested on: PC12 cells; settings: antimycin A 10 μg/ml, 0.6 mM hydrogen, 30 minutes
Experimental: as §6, §7

[17] = tested on: ischemia-reperfusion injury in the liver; settings: untreated 74
From the text: Mice (C57BL/6 line, 5 week old, male) were put under general anesthesia by supplying mixed anesthetic gases (oxygen: 0.3 L/min., nitrous oxide: 0.7 L/min., Sevofrane (Maruishi Pharmaceutical Co., Ltd.): 3%) thereto with a small animal general anesthesia machine Soft Lander (Neuroscience Inc.). After anesthesia introduction, the anesthesia was maintained for a long time by supplying thereto a mixed anesthetic gas containing Sevofrane at a concentration reduced to 1.5% (oxygen: 0.3 L/min., laughing gas: 0.7 L/min., Sevofrane: 1.5%). Surgical skills (reference: Yadav, S. S. et al., Transplantation 65, 1433-1436 (1998)) shown below were used to prepare model animals with local ischemia-reperfusion injury in the liver. The model animals were examined by hematoxylin-eosin staining (H&E staining) for tissue degeneration in the ischemic liver and hepatic parenchymal cell death induced by ischemia-reperfusion injury.
The belly was opened in the middle thereof. Three canals, portal vein, hepatic artery, and bile duct, leading to the left robe of the liver were together blocked (ischemia start) with a micro-clamp (FD562; Aesculap, South San Francisco, Calif., USA). The belly was sutured with a silk thread. After 90 minutes, the belly was opened again by removing the silk thread used for suture, and the micro-clamp was removed (reperfusion start). The belly was sutured again with a silk thread. The left robe of the liver was reperfused for 3 hours under anesthesia. […] After reperfusion for 3 hours, the left robe of the liver (ischemic liver) was excised and cut into fine strip slices. The slices were fixed by dipping in 10% neutral buffered formalin solution (Wako Pure Chemical Industries, Ltd.).
The fixed ischemic liver slices were subjected to dehydration with ethyl alcohol, dehydrating agent removal with xylene, and paraffin infiltration in an automatic embedding apparatus (SAKURA, Tissue-Tek VIPS). The paraffin-embedded ischemic liver was cut into slices of 3 μm to 5 μm in thickness with a sledge microtome. The slices were attached to slide glass. […]

[18] = Elimination of nitrogen monoxide by hydrogen water; assay type: biochemical; settings: neutral solution saturated with hydrogen molecules, room temperature
Experimental: First, 1 l of water was injected into a 5-l pressure-resistant bottle (manufactured by UNICONTROLS. CO., LTD.). […] After reaction at room temperature for 30 minutes, 1 μM 5-(and -6)-chloromethyl-2′,7′-dichlorodihydrofluorescein diacetate (DCFDH; manufactured by Molecular Probe, USA) was subsequently added thereto. The amount of NO remaining was measured with a fluorescence analyzer (manufactured by TECAN, Austria) at an excitation wavelength of 485 nm. […] After reaction at room temperature for 30 minutes, absorbance at 415, 400, and 340 nm, respectively, were measured with a spectrophotometer.

[19] = 2% hydrogen gas inhalation vs non-inhalation
[20] = brain fixed after 3 days or 7 days of occlusion

Cc1c(C)c2c(c(C)c1O)CC[C@@](C)(CCC[C@H](C)CCC[C@H](C)CCCC(C)C)O2 [alpha-tocopherol, reference compound]
number of viable cells / inhibitory effects on cell death ([1]; antimycin A 10 μg/mL, 24 hours, vs hydrogen-free medium, alpha-tocopherol 100 μM (Example 5)): observed, albeit weaker than those of hydrogen | number of viable cells / inhibitory effects on cell death ([2]; menadione 3 μM, 24 hours, vs hydrogen-free medium, alpha-tocopherol 100 μM (Example 5)): significant effects on menadione were not observed

[HH] [hydrogen molecules, hydrogen]
accumulation of 4-hydroxy-2-nonenal (HNE) [3]: inhibition of accumulation | oxidized guanine (8-OH-G) level [3]: protected nuclear DNA from oxidation | body temperature [4, 19]: improved | body weight [4, 19]: improved | brain infarct volume (TTC staining) ([4]; 2% hydrogen gas inhaled only during ischemia but not during reperfusion, 1 day): not reduced | most effective hydrogen concentration for reduction of infarct volume ([4]; 1 day after occlusion, inhaled gas 0 to 4% (v/v) hydrogen): 2% | brain infarct volume (TTC staining) ([4]; 1 day after occlusion, inhaled hydrogen 0 to 4% (v/v) for 120 minutes in total): Hydrogen concentration-dependent reductions in infarct volume were obviously observed | alleviation of an oxidative disorder compared with Edaravone and FK506 ([4]; Edaravone 6 mg/kg of body weight, FK506 1 mg/kg of body weight): more effective for the alleviation of an oxidative disorder than any of the other compounds tested | difference in infarct volume between hydrogen-treated and hydrogen-untreated group (hematoxylin-eosin) ([4]; after 1 week of occlusion): more significant after 1 week | oxidation marker stainings (anti-8-OH-G, anti-HNE, anti-GFAP positive cells) [4, 20]: significantly reduced | staining with microglia-specific anti-Iba-I antibodies [4, 20]: significantly reduced | durability of cell death inhibitory effects (time course) ([1]; antimycin A 30 μg/mL, 0, 1, 2 and 3 days): confirmed even on the 2nd day or later | hydrogen concentration at which cell death could still be inhibited significantly ([1]; antimycin A 30 μg/mL, 24 hours, approximately 1/16 of the saturated hydrogen concentration): 50 µM | amount of hydrogen that can be dissolved per L of water [5]: approximately 17.5 mL per L | reduction of Fe^3+ [6]: does not reduce | durability of cell death inhibitory effects (time course) ([2]; menadione 10 μM, 0, 1, 2 and 3 days): confirmed even on the 2nd day or later | reduction of O2^−. [7]: do not reduce | increase in the amount of .OH (HPF fluorescence) ([8]; 10 minutes after termination of 60 minutes oxygen-glucose-deficient state, 95% hydrogen/5% carbon dioxide vs nitrogen): not observed in the presence of hydrogen | number of viable neuronal cells ([8]; 1 day after oxygen-glucose deficiency, anti-TUJ-1 staining): increased the number of viable neuronal cells | viability of neuronal cells (cell count, modified MTT method) ([8]; 1 day after oxygen-glucose-deficient state): increased their viabilities | reduction of Cu^2+ [9]: does not reduce | reduction of NAD^+ [10]: does not reduce | hydroxyl radicals (.OH) levels [11]: reduce hydroxyl radicals (.OH) levels | reduction of FAD [12]: does not reduce | reduction of oxidized cytochrome c containing trivalent heme iron [13]: does not reduce | reduction of hydrogen peroxide [14]: do not reduce | deletion in mitochondrial DNA (PCR) ([15]; rats after exercise that ingested hydrogen (inhalation or intraperitoneal saline containing supersaturated hydrogen)): reduced | damage in the muscular tissues (H&E staining) ([15]; rats run 40 m/min. for 20 minutes, then air containing 10% hydrogen gas for 30 minutes): alleviate damage in the muscular tissues | .OH levels (HPF fluorescence) [16]: reduced .OH levels | Degenerated region in liver tissues (%) ([17]; hydrogen gas flow rate 0.04 L/min., from 10 minutes before reperfusion start through whole reperfusion period (280 minutes in total)): 26% | Degenerated region in liver tissues (%) ([17]; hydrogen gas flow rate 0.1 L/min., from 5 minutes before reperfusion start to 5 minutes after reperfusion start (10 minutes in total)): 20% | Degenerated region in liver tissues (%) ([17]; hydrogen gas flow rate 0.2 L/min., from 5 minutes before reperfusion start to 5 minutes after reperfusion start (10 minutes in total)): 10% | reduction of nitrogen monoxide [18]: do not reduce
